Measurements published in patent US6977141B2, “Direct adsorption scintillation assay for measuring enzyme activity and assaying biochemical processes” (Vicuron Pharmaceuticals Inc., priority 1998, dated 2005).

Molecular target: MurA (Escherichia coli, UniProt P0A749)
Experiment: Direct adsorption scintillation assay (DASA) of the coupled MurA-MurB-MurC reaction, detection of enzyme inhibition
Format: biochemical
Protocol: A reaction mixture was prepared, of which 2 μl contains 38 ng MurA, 34 ng MurB, 34 ng MurC, 40 pmol ATP, 40 pmol UDP-NAcGlc, 40 pmol PEP, 40 pmol NADPH, 4 pmol L-[^3H]-alanine (72.3 Ci/mmol) in 50 mM Tris-HCl, pH 8, 20 mM MgCl2, 20 mM (NH4)2SO4, 1 mM DTT, 0.005% Brij-35. The mixture was incubated at room temperature for one hour. After one hour, 0.25 μl of the reaction mixture was transferred into each well of the poly-D-lysine coated FLASHPLATE™; each well contained 100 μl of 10 mM acetic acid, pH 3.0. The scintillation was counted using the TOPCOUNT™.
Enzyme mixtures (with 60 ng MurA, 8 ng MurB and 60 ng MurC present in each 2 μl sample) were prepared. The enzyme-phosphomycin mixture was pre-incubated at room temperature for 30 minutes. The substrates, as prepared in Example 2, were then added to the mixture to start the reaction. After 30 minutes of reaction at room temperature, 0.25 μl of the reaction mixture was transferred into each well of the poly-D-lysine coated FLASHPLATE™; each well contained 100 μl of 10 mM acetic acid. The scintillation was counted using the TOPCOUNT™.

Chain of MurA (P0A749 whole entry): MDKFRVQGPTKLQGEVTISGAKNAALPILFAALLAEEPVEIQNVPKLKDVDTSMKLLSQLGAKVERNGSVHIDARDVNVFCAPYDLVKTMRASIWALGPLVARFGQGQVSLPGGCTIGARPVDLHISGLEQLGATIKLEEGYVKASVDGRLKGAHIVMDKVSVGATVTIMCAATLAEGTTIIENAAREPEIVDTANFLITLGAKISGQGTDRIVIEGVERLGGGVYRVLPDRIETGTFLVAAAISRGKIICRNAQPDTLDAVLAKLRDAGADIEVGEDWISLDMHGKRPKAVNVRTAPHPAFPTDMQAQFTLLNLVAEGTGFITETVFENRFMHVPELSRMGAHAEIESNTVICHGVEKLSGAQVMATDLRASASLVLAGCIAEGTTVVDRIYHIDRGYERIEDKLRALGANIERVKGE

With `C[C@@H]1O[C@@H]1P(=O)(O)O` [phosphomycin] the “scintillation count with increasing inhibitor concentration (FIG. 3)” value (60 ng MurA, 8 ng MurB, 60 ng MurC per 2 μl, 30 min pre-incubation at room temperature without UDP-NAcGlc, 30 min reaction, poly-D-lysine coated FLASHPLATE) was “decreased scintillation count” and the IC50 (pre-incubation carried out in the absence of UDP-NAc-Glu, qualitative statement, no number given) was “relatively high”.
